# Results from patent US11980211B2, “Verbascoside and related compounds for sweetness enhancement” (International Flavors & Fragrances Inc., priority 2018, dated 2024).
# How the values were obtained:
# [1] = Flavor profile of sucrose solution with added verbascoside or isoverbascoside; settings: sucrose solution (4%)
# Procedure: A sucrose solution (4%) was prepared in water. Each of verbascoside and isoverbascoside solutions of different concentrations was prepared in ethanol solution in water (50%). Verbascoside and isoverbascoside were evaluated at 1 and 200 ppm, respectively.
# The flavor profile of the sucrose solution with added verbascoside and isoverbascoside is reported in the following: […]
# [2] = Flavor profile of Luo Han Guo solution with added verbascoside or isoverbascoside; settings: Luo Han Guo solution (120 ppm)
# Procedure: A Luo Han Guo (Biovittoria Ltd., New Zealand) solution was prepared in water (120 ppm). Verbascoside and isoverbascoside solutions were prepared as above (EXAMPLE II). The flavor profile of the Luo Han Guo solution with added verbascoside and isoverbascoside is reported in the following: […]
SMILES,overall effect (summary) [1],overall effect (summary) [2]
"CC1OC(OC2C(O)C(OCCc3ccc(O)c(O)c3)OC(CO)C2OC(=O)/C=C/c2ccc(O)c(O)c2)C(O)C(O)C1O [Verbascoside, (E)-2-(3,4-dihydroxyphenyl)ethyl 3-O-(6-deoxy-α-L-mannopyranosyl)-4-[3-(3,4-dihydroxyphenyl)-2-propenoate]-β-D-Glucopyranoside]",exhibited particular effect in sweetness enhancement,exhibited particular effect in sweetness enhancement
"CC1OC(OC2C(O)C(COC(=O)/C=C/c3ccc(O)c(O)c3)OC(OCCc3ccc(O)c(O)c3)C2O)C(O)C(O)C1O (stereo not shown) [Isoverbascoside, isoverbascoside]",enhanced overall mouthfeel,enhanced overall mouthfeel and suppressed Luo Han Guo's lingering off-taste
